Source: US20130230459A1, “RADIOLABELLED mGluR2 PET LIGANDS” (Janssen Pharmaceuticals, Inc., priority 2010, published 2013)
Where “and” joins values, the source holds several entries; their conditions need not be identical. Equal values may be shown once.

How the values were obtained:
[1] = Perfused brain radiometabolite analysis (30 min p.i.); assay type: in vivo, Wistar rats
Method: The relative amounts of parent tracer and radiometabolites in perfused cerebellum and cerebrum at 30 min p.i. of the tracer was determined in healthy male Wistar rats for [^11C]B-4, [^11C]B-2, [^11C]B-7, and [^11C]B-10. After i.v. administration of about 74 MBq of the radioligand via tail vein under anesthesia (2.5% Isoflurane in O2 at 1 L/min flow rate), rats were sacrificed by administering an overdose of Nembutal (CEVA Santé Animale, 200 mg/kg intraperitoneal). When breathing had stopped, the rats were perfused with saline (Mini Plasco®, Braun, Melsungen, Germany) until the liver turned pale. Brain was isolated, cerebrum and cerebellum were separated and homogenized in 3 mL and 2 mL of CH3CN, respectively, for about 2 min. A volume of 1 mL of this homogenate was diluted with an equal volume of water and a part of this homogenate was filtered through a 0.22 μm filter (Millipore, Bedford, USA). About 0.5 mL of the filtrate was diluted with 0.1 mL of water and spiked with 10 μg of authentic non-radioactive compound (1 mg/mL solution) for identification of the intact tracer. The cerebrum/cerebellum extract was then injected onto an HPLC system consisting of an analytical XBridge® column (C18, 5 μM, 3 mm×100 mm, Waters) eluted with a mixture of 0.05 M NaOAc buffer (pH 5.5) and CH3CN (60:40 v/v) at a flow rate of 0.8 mL/min. The HPLC eluate was collected as 1 mL fractions (fraction collection each minute) after passing through the UV detector (254 nm), and the radioactivity in the fractions was measured using an automated gamma counter.

[2] = Plasma radiometabolite analysis (30 min p.i.); assay type: in vivo, Wistar rats; details: n = 2
Method: The metabolic stability of [^11C]B-4, [^11C]B-2, [^11C]B-7, and [^11C]B-10 was studied in healthy male Wistar rats by determination of the relative amounts of parent tracer and radiometabolites in plasma at 30 min p.i. of the tracer. After intravenous (i.v.) administration of about 74 MBq of the radioligand via tail vein under anesthesia (2.5% Isoflurane in O2 at 1 L/min flow rate), rats were sacrificed by decapitation at 30 min p.i. (n=2). Blood was collected in heparin containing tubes (4.5 mL LH PST tubes; BD vacutainer, BD, Franklin Lakes, N.J., USA) and stored on ice to stop the metabolism. Next, the blood was centrifuged for 5 min at 3000 rpm to separate the plasma. About 0.5 mL of plasma was spiked with about 10 μg of the authentic non-radioactive compound (1 mg/mL solution) and injected on to HPLC, which was connected to a Chromolith® performance column (C18, 3 mm×100 mm, Merck KGaA, Darmstadt, Germany). The mobile phase consisted of 0.05 M NaOAc buffer (pH 5.5) (solution A) and CH3CN (solvent B). The following method was used for the analysis: isocratic elution with 100% A for 4 min at a flow rate of 0.5 mL/min, linear gradient to 90% B by 9 min at a flow rate of 1 mL/min, and isocratic elution with mixture of 10% A and 90% B until 12 min. After passing through the UV detector (254 nm), the HPLC eluate was collected as 1 mL fractions (fraction collection each minute) using an automatic fraction collector and the radioactivity of these fractions was measured using an automated gamma counter.

intact tracer in perfused cerebellum [1] | intact tracer in perfused cerebrum [1] | polar metabolite in perfused cerebellum [1] | polar metabolite in perfused cerebrum [1] | recovered radioactivity present as intact tracer, on average, in both cerebrum and cerebellum [1] | Intact tracer in rat plasma [2] | Polar metabolites in rat plasma [2] | Structure (SMILES)
95.5 ± 1.3% | 90.3 ± 0.3% | 4.1 ± 1.5% | 9.7 ± 0.3% | about 90% | 70% and 69.7 ± 5.1% | 30.3 ± 5.1% | [11CH3]Oc1c(F)ccc(F)c1C1CCN(c2ccn3c(CC4CC4)nnc3c2Cl)CC1 [[^11C]B-2, 8-chloro-3-(cyclopropylmethyl)-7-[4-(3,6-difluoro-2-[^11C]methoxyphenyl)-1-piperidinyl]-1,2,4-triazolo[4,3-a]pyridine]
95.5% | 92.9% | 4.5% | 7.1% | about 90% | 30.8 ± 7.0% | 69.2 ± 7.0% | [11CH3]Oc1cc(F)cc(F)c1C1CCN(c2ccn3c(CC4CC4)nnc3c2Cl)CC1 [[^11C]B-7, 8-chloro-3-(cyclopropylmethyl)-7-[4-[2,4-difluoro-6-[^11C]methoxyphenyl]-1-piperidinyl]-1,2,4-triazolo[4,3-a]pyridine]
96.4% | 93.1% | 3.6% | 6.9% | about 90% | 45.5 ± 2.1% | 54.5 ± 2.1% | [11CH3]Oc1ccc(F)c(F)c1C1CCN(c2ccn3c(CC4CC4)nnc3c2Cl)CC1 [[^11C]B-10, 8-chloro-3-(cyclopropylmethyl)-7-[4-[2,3-difluoro-6-[^11C]methoxyphenyl]-1-piperidinyl]-1,2,4-triazolo[4,3-a]pyridine]

Structure (SMILES) | intact tracer in perfused cerebellum [1] | intact tracer in perfused cerebrum [1] | polar metabolite in perfused cerebellum [1] | polar metabolite in perfused cerebrum [1] | recovered radioactivity present as intact tracer, on average, in both cerebrum and cerebellum [1] | Intact tracer in rat plasma [2] | Polar metabolites in rat plasma [2]
[11CH3]Oc1ccc(F)cc1C1CCN(c2ccn3c(CC4CC4)nnc3c2Cl)CC1 [[^11C]B-4, 8-chloro-3-(cyclopropylmethyl)-7-[4-[5-fluoro-2-[^11C]methoxyphenyl]-1-piperidinyl]-1,2,4-triazolo[4,3-a]pyridine] | 92.7% | 92.4% | 7.3% | 7.6% | about 90% | 41.0 ± 7.1% | 59.0 ± 7.1%
